Data set [1] concerns the target T1, recombinant form of Glutaminase 1 (GAC) (Homo sapiens, UniProt O94925). Put plainly: Recombinant Enzyme Assay - Time Dependence (60 minutes enzyme/compound preincubation). The format is biochemical. As to the method:
The enzyme/compound mix was sealed with sealing foil (USA Scientific) and allowed to incubate, with mild agitation, for 60 minutes at 20° C. Enzymatic reaction was started with the addition of 50 μL of substrate solution (50 mM Tris-HCl pH 8.0, 0.2 mM EDTA, 150 mM K2HPO4, 0.1 mg/ml BSA, 1 mM DTT, 20 mM L-glutamine, 2 mM NAD^+, and 10 ppm antifoam) and read in a Molecular Devices M5 plate reader at 20° C. The plate reader was configured to read absorbance (λ=340 nm) in kinetic mode for 15 minutes. Data was recorded as milli-absorbance units per minute and slopes were compared to a control compound and a DMSO-only control on the same plate. Compounds with slopes less than the DMSO control were considered inhibitors and plate variability was assessed using the control compound.

The nature of data set [2]: Solubility (18 hr vortex mixing at room temperature, filtration, HPLC). The format is physicochemical. Particulars: thermodynamic from solid. As to the method:
Ca. 1 mg portions of test article were combined with 120 μL solvent in wells of a 96×2 mL polypropylene plate. […] The contents of all wells were then filtered through a 0.45 μm GHP filter plate to yield clear filtrates. 5 μL of each filtrate was diluted into 100 μL DMF and vortex mixed to yield HPLC samples. Duplicate quantitation standards for each test article were prepared by diluting weighed portions of solid test article in measured volumes of DMF. 2 μL of each HPLC sample and quantitation standard were analyzed by HPLC using the method outlined in Table 5. Dissolved test article concentrations were calculated by peak area ratio against the appropriate quantitation standards.

In data set [3] the target is T1, recombinant form of Glutaminase 1 (GAC). Nature of the data set: Recombinant Enzyme Assay (GAC coupled to GDH, NADH absorbance, no preincubation). The format is biochemical. Particulars: read-out: GAC Delta N2 IC50 no preinc. The method in brief: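 GAC (4 nM) in Tris-HCl pH 8.0 with 150 mM K2HPO4, EDTA, BSA, DTT, plus 4 units/ml GDH and 4 mM ADP, without preincubation. Absorbance at 340 nm was read kinetically for 15 min at 20° C. Slopes (mAU/min) were compared with DMSO-only and control-compound wells on the same plate.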

Setting [4] is: read-out: GAC Delta N2 IC50 60 min.
Setting [5] is: read-out: GAC Delta N2 IC50 60 min preinc.

Values after ≈ are worked out from the molar mass of the structure shown.

In the case of `CC(=O)N1CCN(Cc2cc(CC(=O)Nc3nnc(CCCCc4ccc(NC(=O)Cc5ccccc5)nn4)s3)ccc2F)CC1` [Compound 528], in data set [1] (setting [4]), the IC50 was 7 nM.

As for `NCc1cccc(CC(=O)Nc2nnc(CCCCc3nnc(NC(=O)Cc4ccccc4)s3)s2)c1` [Compound 437], the IC50 in data set [1] (setting [4]) was 70 nM.

For `O=C(Cc1ccccc1)Nc1nnc(CCCCc2nnc(NC(=O)Cc3cccc(OCCN4CCOCC4)c3)s2)s1` [Compound 390], in data set [1] (setting [5]), the IC50 came to 42 nM.

In the case of `Cc1cccc(CNC(=O)Nc2nnc(CCCCc3nnc(NC(=O)Cc4ccccc4)s3)s2)c1` [Compound 417], in data set [1] (setting [4]), the IC50 was found to be 56 nM.

For the molecule `CCCC(=O)OCN(C(=O)Cc1ccccc1)c1nnc(CCCCc2ccc(NC(=O)Cc3cccc(OC(F)(F)F)c3)nn2)s1` [Compound 629], in data set [1] (setting [4]), the IC50 was over 20000 nM.

In the case of `O=C(Cc1ccccc1)Nc1ccc(CCCCc2nnc(NC(=O)CC3=CN4CCCN=C4S3)s2)nn1` [Compound 511], in data set [1] (setting [4]), the IC50 was 580 nM.

Regarding `CC(C)(C)OC(=O)N1CCN(Cc2cc(CC(=O)Nc3nnc(CCCCc4ccc(NC(=O)Cc5ccccc5)nn4)s3)ccc2F)CC1` [Compound 493], the IC50 in data set [1] (setting [4]) was 19 nM.

For `O=C(Cc1ccccc1)Nc1ccc(CCCCc2nnc(NC(=O)Cc3cccc(OCc4ccccn4)c3)s2)nn1` [Compound 480], in data set [1] (setting [4]), the IC50 is over 20000 nM.

Consider `Cc1ccccc1CC(=O)Nc1nnc(CCCCc2ccc(NC(=O)Cc3ccccc3Cl)nn2)s1` [Compound 535], for which the IC50 in data set [1] (setting [4]) worked out at 7 nM.

Regarding `CC(C(=O)Nc1nnc(CCCCc2ccc(NC(=O)Cc3cccc(CNC(=O)OCCF)c3)nn2)s1)c1ccccc1` (stereo not drawn) [Compound 591], in data set [1] (setting [4]), the IC50 came out at 4 nM.

For `O=C(Cc1ccccc1F)Nc1ccc(CCCCc2nnc(NC(=O)Cc3ccccc3Cl)s2)nn1` [Compound 566], in data set [1] (setting [4]), the IC50 amounted to 6 nM.

Take `O=C(Cc1ccccc1)Nc1nnc(CCCCc2nnc(NC(=O)Cc3cccc(Cn4cccn4)c3)s2)s1` [Compound 392]: in data set [1] (setting [5]), the IC50 was found to be 14 nM.

Take `O=C(Cc1ccccc1)Nc1ccc(CCCCc2nnc(NC(=O)Cc3ccc(F)c(CN4CCNCC4)c3)s2)nn1` [Compound 494]: the IC50 in data set [1] (setting [4]) stood at 19 nM.

On to `CC(C(=O)Nc1nnc(CCCCc2ccc(NC(=O)Cc3cccc(CNC(=O)CC(C)(O)C(F)(F)F)c3)nn2)s1)c1ccccc1` (stereo not drawn) [Compound 607], for which the IC50 in data set [1] (setting [4]) was found to be 7 nM.

`CC(C)(C)OC(=O)NCc1cccc(CC(=O)Nc2nnc(CCCCc3ccc(NC(=O)C(O)c4cccc(Cl)c4)nn3)s2)c1` (stereo not drawn) [Compound 422]: the IC50 in data set [1] (setting [4]) came out at 7 nM.

For the molecule `CC(C)(C)OC(=O)NCc1cccc(CC(=O)Nc2nnc(CCCCc3ccc(NC(=O)C(O)(CO)c4ccccc4)nn3)s2)c1` (stereo not drawn) [Compound 507], the IC50 in data set [1] (setting [4]) was found to be 13 nM.

For the molecule `CC(NC(=O)OC(C)(C)C)c1cc(CC(=O)Nc2nnc(CCCCc3ccc(NC(=O)Cc4ccccc4)nn3)s2)ccc1F` (stereo not drawn) [Compound 653], the IC50 in data set [1] (setting [4]) was 5 nM.

As for `CCCC(=O)OCN(C(=O)C(CO)c1cccc(CNC(=O)OC(C)(C)C)c1)c1nnc(CCCCc2ccc(NC(=O)Cc3ccccc3)nn2)s1` (stereo not drawn) [Compound 567], the IC50 in data set [1] (setting [4]) is 430 nM.

As to `O=C(Cc1ccccc1)Nc1ccc(CCCCc2nnc(NC(=O)C(O)c3ccc(-c4ccccc4)cc3OCCO)s2)nn1` (stereo not drawn) [Compound 504], the IC50 in data set [1] (setting [4]) turned out to be 7 nM.

As to `COC(C(=O)Nc1nnc(CCCCc2ccc(NC(=O)Cc3cccc(CNC(=O)OC(C)(C)C)c3)nn2)s1)c1ccccc1` (stereo not drawn) [Compound 509], the IC50 in data set [1] (setting [4]) is 10 nM.

For the molecule `CCCC(=O)OCN(C(=O)Cc1ccccc1)c1nnc(CCCCc2ccc(NC(=O)Cc3ccccc3)nn2)s1` [Compound 402], the solubility (commonly the concentration that dissolves in the medium under given conditions) at 18 h in data set [2] (50 mM citrate buffer pH 2.3, 20 °C, aqueous buffer, 50 mM Cit pH 2.3, room temperature) was under 4 µg/mL; in data set [2] (50 mM citrate buffer pH 3.3, 20 °C, aqueous buffer, 50 mM Cit pH 3.3, room temperature) it was under 4 µg/mL; in data set [2] (50 mM citrate buffer pH 4.4, 20 °C, aqueous buffer, 50 mM Cit pH 4.4, room temperature) it was under 4 µg/mL; in data set [2] (50 mM citrate buffer pH 5.4, 20 °C, aqueous buffer, 50 mM Cit pH 5.4, room temperature), under 4 µg/mL; in data set [2] (20 °C, aqueous buffer, PBS, room temperature), under 4 µg/mL; in data set [2] (20 °C, aqueous with cosolvent or surfactant or cyclodextrin, 10% CrEL/50 mM cit, room temperature), 157 µg/mL (≈ 268 µM). Moreover, the solubility at 18 h in data set [2] (20 °C, aqueous with cosolvent or surfactant or cyclodextrin, 10% PS80/50 mM cit, room temperature) came to 153 µg/mL (≈ 261 µM); in data set [2] (20 °C, aqueous with cosolvent or surfactant or cyclodextrin, 20% HPBCD/50 mM cit, room temperature), 56 µg/mL (≈ 95.4 µM); in data set [2] (20 °C, aqueous with cosolvent or surfactant or cyclodextrin, 20% SBECD/50 mM cit, room temperature), 19 µg/mL (≈ 32.4 µM); in data set [2] (20 °C, oil or lipid, Capryol 90, room temperature), 13700 µg/mL (≈ 23300 µM); in data set [2] (20 °C, oil or lipid, Capryol PGMC, room temperature), 11200 µg/mL (≈ 19100 µM); in data set [2] (20 °C, oil or lipid, Labrasol, room temperature), 31000 µg/mL (≈ 52900 µM). In addition, the solubility at 18 h was 529 µg/mL (≈ 902 µM) in data set [2] (20 °C, oil or lipid, canola oil, room temperature); 2960 µg/mL (≈ 5040 µM) in data set [2] (20 °C, organic solvent or mixture, EtOH, room temperature); 30200 µg/mL (≈ 51400 µM) in data set [2] (20 °C, organic solvent or mixture, PEG400, room temperature); 1360 µg/mL (≈ 2330 µM) in data set [2] (20 °C, organic solvent or mixture, PG, room temperature); under 4 µg/mL in data set [2] (20 °C, pH 1, simulated gastric fluid, 0.1M HCl, room temperature); under 4 µg/mL in data set [2] (20 °C, pH 13, aqueous buffer, 0.1M NaOH, room temperature). In addition, the solubility at 18 h in data set [2] (20 °C, saline or isotonic, 0.9% NaCl, room temperature) was under 4 µg/mL; in data set [2] (water, room temperature (ca. 20 C)), under 4 µg/mL.

Turning to `O=C(CC1CCCNC1)Nc1nnc(CCSCCc2nnc(NC(=O)CC3CCCNC3)s2)s1` (stereo not drawn) [Compound 124], the IC50 in data set [3] (no preincubation) was over 20000 nM.

`O=C(Cc1ccncc1)Nc1nnc(CCSCCc2nnc(NC(=O)Cc3ccncc3)s2)s1` [Compound 361]: the IC50 in data set [3] (no preincubation) turned out to be 1800 nM.

With `O=C(Cc1ccccc1)Nc1nnc(C[C@@H]2C[C@H]2Cc2nnc(NC(=O)Cc3ccccc3)s2)s1` [Compound 1035], the IC50 in data set [3] (no preincubation) is over 20000 nM.

`CCOC(=O)Nc1nnc(CCSCCc2nnc(NC(=O)OCC)s2)s1` [Compound 356]: the IC50 in data set [3] (no preincubation) is over 20000 nM.

In the case of `O=C(Cc1cccc(-c2cccnc2)c1)Nc1nnc(CCCCc2nnc(NC(=O)Cc3cccc(-c4cccnc4)c3)s2)s1` [Compound 312], in data set [3] (no preincubation), the IC50 is over 20000 nM.

On to `O=C(Nc1nnc(CCCCc2nnc(NC(=O)C(O)(CO)c3ccccc3)s2)s1)C(O)(CO)c1ccccc1` (stereo not drawn) [Compound 278], for which the IC50 in data set [3] (no preincubation) is 380 nM.

Take `O=C(Nc1nnc(CCSCCc2nnc(NC(=O)[C@@H]3CCCN3C(=O)C(F)(F)F)s2)s1)[C@@H]1CCCN1C(=O)C(F)(F)F` [Compound 22]: in data set [3] (no preincubation), the IC50 was over 50000 nM.

Take `NS(=O)(=O)c1ccc(CC(=O)Nc2nnc(CCSCCc3nnc(NC(=O)Cc4ccc(S(N)(=O)=O)cc4)s3)s2)cc1` [Compound 217]: in data set [3] (no preincubation), the IC50 worked out at 240 nM.

Turning to `O=C(Nc1nnc(CCSCCc2nnc(NC(=O)C3Cc4ccccc4O3)s2)s1)C1Cc2ccccc2O1` (stereo not drawn) [Compound 50], in data set [3] (no preincubation), the IC50 is 2500 nM.

As to `Cn1cc(CC(=O)Nc2nnc(CCCCc3nnc(NC(=O)Cc4cn(C)c5ccccc45)s3)s2)c2ccccc21` [Compound 201], in data set [3] (no preincubation), the IC50 was 2700 nM.

`O=C(Nc1nnc(CCCCc2nnc(NC(=O)C3Cc4cc(Br)ccc4O3)s2)s1)C1Cc2cc(Br)ccc2O1` (stereo not drawn) [Compound 122]: the IC50 in data set [3] (no preincubation) came out at 3500 nM.

Regarding `Cc1nccn1Cc1cccc(CC(=O)Nc2nnc(CCCCc3nnc(NC(=O)Cc4cccc(Cn5ccnc5C)c4)s3)s2)c1` [Compound 296], in data set [3] (no preincubation), the IC50 turned out to be 100 nM.

For `O=C(Nc1nnc(CCSCCc2nnc(NC(=O)c3ccccc3)s2)s1)c1ccccc1` [Compound 2], the IC50 in data set [3] is 4100 nM.

For `Nc1nnc(CCSCCc2nnc(NC(=O)[C@@H]3CCCN3C(=O)C(F)(F)F)s2)s1` [Compound 23], the IC50 in data set [3] (no preincubation) was over 50000 nM.

`O=C(Nc1nnc(CCCCc2nnc(NC(=O)C3COc4ccccc4O3)s2)s1)C1COc2ccccc2O1` (stereo not drawn) [Compound 52]: the IC50 in data set [3] (no preincubation) amounted to 8300 nM.

In the case of `O=C(Cn1cccn1)Nc1nnc(CCSCCc2nnc(NC(=O)Cn3cccn3)s2)s1` [Compound 57], the IC50 in data set [3] (no preincubation) turned out to be 40000 nM.

Turning to `O=C(Nc1nnc(CCSCCc2nnc(NC(=O)C3(C(F)(F)F)CC3)s2)s1)C1(C(F)(F)F)CC1` [Compound 59], in data set [3] (no preincubation), the IC50 is over 50000 nM.

Take `O=C(Cc1ccc(C(F)(F)F)cc1)Nc1nnc(CCSCCc2nnc(NC(=O)Cc3ccc(C(F)(F)F)cc3)s2)s1` [Compound 183]: the IC50 in data set [3] (no preincubation) is over 20000 nM.

With `CS(=O)(=O)c1cccc(CC(=O)Nc2nnc(CCSCCc3nnc(NC(=O)Cc4cccc(S(C)(=O)=O)c4)s3)s2)c1` [Compound 158], in data set [3] (no preincubation), the IC50 came out at 220 nM.

For the molecule `CC(=O)OCC(C(=O)Nc1nnc(CCSCCc2nnc(NC(=O)C(COC(C)=O)c3ccccc3)s2)s1)c1ccccc1` (stereo not drawn) [Compound 14], the IC50 in data set [3] (no preincubation) turned out to be 2800 nM.

The record behind these values is patent US8604016B2, “Heterocyclic inhibitors of glutaminase” (Calithera Biosciences Inc., priority 2011, dated 2013).
